Reference: ChEMBL document CHEMBL5365456, “Isolation and biological activity of natural chalcones based on antibacterial mechanism classification” (Bioorg Med Chem, 2023)
Values after ≈ are worked out from the molar mass of the structure shown.

How the values were obtained:
[1] = test system: Escherichia coli; assay: Antibiofilm activity against Escherichia coli 0157:H7 at 6.25 uM incubated for 24 hr by crystal violet staining based assay relative to control; assay type: functional
[2] = test system: Escherichia coli; assay: Antibiofilm activity against Escherichia coli 0157:H7 at 200 uM incubated for 24 hr by crystal violet staining based assay relative to control; assay type: functional
[3] = Inhibition of Escherichia coli 0157:H7 AI-2 incubated for 3.5 hrs in dark condition by microplate reader analysis
[4] = test system: Staphylococcus aureus; assay: Antibacterial activity against Staphylococcus aureus ATCC 29213 assessed as bacterial growth inhibition incubated for 18 hrs by CLSI-based broth microdilution method; assay type: functional
[5] = test system: Staphylococcus aureus; assay: Antibiofilm activity against Staphylococcus aureus BAA44 at 0.78 ug/ml incubated for 24 hr by crystal violet staining based assay relative to control; assay type: functional
[6] = test system: Staphylococcus aureus; assay: Antibiofilm activity against Staphylococcus aureus 6538 at 0.78 ug/ml incubated for 24 hr by crystal violet staining based assay relative to control; assay type: functional
[7] = test system: Clostridioides difficile; assay: Antibacterial activity against Clostridium difficile ATCC 43255 assessed as bacterial growth inhibition incubated for 24 hrs by two-fold serial dilution method; assay type: functional
[8] = test system: Staphylococcus aureus; assay: Antibiofilm activity against Staphylococcus aureus BAA44 incubated for 24 hr by crystal violet staining based assay; assay type: functional
[9] = test system: Staphylococcus aureus; assay: Antibacterial activity against Staphylococcus aureus MSSA1 assessed bacterial growth inhibition by CLSI-based broth microdilution method; assay type: functional
[10] = test system: Bacillus subtilis; assay: Bactericidal activity against Bacillus subtilis as by CLSI-based micro broth dilution method; assay type: functional
[11] = test system: Staphylococcus aureus; assay: Antibiofilm activity against Staphylococcus aureus 6538 incubated for 24 hr by crystal violet staining based assay; assay type: functional
[12] = test system: Staphylococcus xylosus; assay: Antibacterial activity against Staphylococcus xylosus ATCC 700404 assessed bacterial growth inhibition incubated for 24 hrs by Broth microdilution method; assay type: functional
[13] = test system: Staphylococcus xylosus; assay: Antibiofilm activity against Staphylococcus xylosus ATCC 700404 at 20 ug/ml incubated for 24 hr by crystal violet staining based assay relative to control; assay type: functional
[14] = Inhibition of FAS2 in Mycobacterium smegmatis mc2 155 transfected with pVV16 vector by BCA assay; design: species or system Mycolicibacterium smegmatis
[15] = Inhibition of His-tagged Escherichia coli ANS1 Fab1 using trans-2-octanoyl-N-acetylcysteamine as substrate by spectrometric analysis
[16] = test system: Escherichia coli; assay: Antibacterial activity against Escherichia coli ANS1 assessed as bacterial growth inhibition incubated for 20 hrs by broth microdilution method; assay type: functional
[17] = Inhibition of FAS1 in Mycobacterium smegmatis mc2 155 transfected with pVV16 vector by BCA assay; design: species or system Mycolicibacterium smegmatis
[18] = test system: Staphylococcus xylosus; assay: Inhibition of Staphylococcus xylosus ATCC 700404 IGPD at 40 ug/ml relative to control; settings: dose 40.0 µg/ml
[19] = Inhibition of FAS1 in Mycobacterium smegmatis mc2 155 transfected with pVV16 vector expressing Rv0636 by BCA assay; design: species or system Mycolicibacterium smegmatis
[20] = Inhibition of FAS2 in Mycobacterium smegmatis mc2 155 transfected with pVV16 vector expressing Rv0636 by BCA assay; design: species or system Mycolicibacterium smegmatis
[21] = Inhibition of His-tagged Escherichia coli ANS1 FabG using acetoacetyl-CoA as substrate by spectrometric analysis
[22] = molecular target: T1, Sortase B (Staphylococcus aureus, UniProt Q2FZE3); assay: Inhibition of Staphylococcus aureus sortase b transpeptidation expressed in Escherichia coli BL21 (DE3) cells using Fluorescent peptide as substrate at 16 ug/ml preincubated for 30 mins followed by substrate addition and measured for 1 hr by FRET assay
T1 sequence (Q2FZE3 whole entry): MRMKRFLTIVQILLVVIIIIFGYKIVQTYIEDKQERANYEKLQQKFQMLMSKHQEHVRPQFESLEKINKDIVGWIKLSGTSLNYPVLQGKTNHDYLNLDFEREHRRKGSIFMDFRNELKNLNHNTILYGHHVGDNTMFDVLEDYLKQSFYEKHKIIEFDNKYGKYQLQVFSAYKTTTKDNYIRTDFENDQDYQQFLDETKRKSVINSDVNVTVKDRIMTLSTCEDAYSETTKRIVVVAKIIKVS

[23] = test system: Mycobacterium tuberculosis; assay: Antitubercular activity against XDR Mycobacterium tuberculosis X59 assessed as bacterial growth inhibition measured for 9 days; assay type: functional; settings: X59, 216 h, time 9 day
[24] = test system: Staphylococcus aureus; assay: Antibacterial activity against Staphylococcus aureus BAA 1707 assessed as bacterial growth inhibition by CLSI-based broth micro-dilution method; assay type: functional
[25] = test system: Cutibacterium acnes; assay: Antibacterial activity against Propionibacterium acnes KCTC5933 assessed as bacterial growth inhibition incubated for 48 hrs by broth microdilution assay; assay type: functional
[26] = test system: Staphylococcus aureus; assay: Antibiofilm activity against Staphylococcus aureus RN4220 incubated for 18 to 24 hrs by broth microdilution method; assay type: functional; settings: time 18-24 hrs
[27] = test system: Candida albicans; assay: Antifungal activity against Candida albicans SC5314 assessed as fungal growth inhibition incubated for 48 hrs by CLSI-based two-fold serial dilution method; assay type: functional
[28] = test system: Staphylococcus aureus; assay: Antibacterial activity against Staphylococcus aureus Newman assessed as bacterial growth inhibition by CLSI-based broth micro-dilution method; assay type: functional
[29] = test system: Streptococcus pyogenes; assay: Antibacterial activity against Streptococcus pyogenes ATCC 19615 assessed bacterial growth inhibition incubated for 24 hrs by double dilution method; assay type: functional
[30] = test system: Staphylococcus aureus; assay: Inhibition of Staphylococcus aureus ATCC 6538 Catalase at 7.81 ug/ml relative to control; settings: dose 7.81 µg/ml
[31] = test system: Streptococcus pyogenes; assay: Antibiofilm activity against Streptococcus pyogenes ATCC 19615 at 23.4 ug/ml incubated for 1 hr by crystal violet staining based assay relative to control; assay type: functional; settings: dose 23.4 µg/ml
[32] = test system: Staphylococcus aureus; assay: Antibacterial activity against Staphylococcus aureus 8325-4 assessed as bacterial growth inhibition by CLSI-based broth micro-dilution method; assay type: functional
[33] = test system: Cutibacterium acnes; assay: Antibacterial activity against Propionibacterium acnes KCTC3314 assessed as bacterial growth inhibition incubated for 48 hrs by broth microdilution assay; assay type: functional
[34] = test system: Candida albicans; assay: Inhibition of Candida albicans SC5314 hyphal transition at 74.55 ug/ml incubated for 24 hrs relative to control; assay type: functional
[35] = test system: Staphylococcus aureus; assay: Antibiofilm activity against Staphylococcus aureus RN4220 at 1 ug/ml incubated for 18 to 24 hrs by broth microdilution method relative to control; assay type: functional; settings: time 18-24 hrs
[36] = test system: Candida albicans; assay: Antifungal activity against Candida albicans SC5314 assessed as fungal growth inhibition incubated for 48 hrs by CLSI protocol based assay; assay type: functional
[37] = test system: Staphylococcus aureus; assay: Inhibition of Staphylococcus aureus ATCC 6538 IDH at 7.81 ug/ml relative to control; settings: dose 7.81 µg/ml
[38] = test system: Staphylococcus aureus; assay: Antibiofilm activity against Staphylococcus aureus RN4220 at 8 to 256 ug/ml incubated for 18 to 24 hrs by broth microdilution method relative to control; assay type: functional; settings: dose 8-256 µg/ml; time 18-24 hrs; at 8 to 256 µg/mL
[39] = test system: Listeria monocytogenes; assay: Antibiofilm activity against Listeria monocytogenes CMCC 54004 at 20 ug/ml by crystal violet staining based assay relative to control; assay type: functional
[40] = test system: Cutibacterium acnes; assay: Antibacterial activity against Propionibacterium acnes KCTC3220 assessed as bacterial growth inhibition incubated for 48 hrs by broth microdilution assay; assay type: functional
[41] = test system: Cutibacterium acnes; assay: Antibacterial activity against Propionibacterium acnes KCTC5527 assessed as bacterial growth inhibition incubated for 48 hrs by broth microdilution assay; assay type: functional
[42] = test system: Klebsiella pneumoniae; assay: Antibacterial activity against Klebsiella pneumoniae assessed bacterial growth inhibition by CLSI-based micro broth dilution method; assay type: functional
[43] = test system: Staphylococcus aureus; assay: Antibiofilm activity against Staphylococcus aureus SA1199B incubated for 18 to 24 hrs by broth microdilution method; assay type: functional; settings: time 18-24 hrs
[44] = test system: Staphylococcus aureus; assay: Antibacterial activity against Staphylococcus aureus ATCC 29213 assessed as bacterial growth inhibition by CLSI-based broth micro-dilution method; assay type: functional
[45] = test system: Staphylococcus aureus; assay: Antibacterial activity against Staphylococcus aureus BAA 1717 assessed as bacterial growth inhibition by CLSI-based broth micro-dilution method; assay type: functional
[46] = test system: Pectobacterium brasiliense; assay: Antibiofilm activity against Pectobacterium brasiliense Pb1692 at 0.4 ug/ml incubated for 72 hr by crystal violet staining based assay relative to control; assay type: functional
[47] = test system: Micrococcus luteus; assay: Antibacterial activity against Micrococcus luteus assessed bacterial growth inhibition by CLSI-based micro broth dilution method; assay type: functional
[48] = test system: Escherichia coli; assay: Antibiofilm activity against Escherichia coli 0157:H7 at 50 ug/ml incubated for 10 hrs by crystal violet staining based assay relative to control; assay type: functional
[49] = test system: Mycobacterium tuberculosis; assay: Antitubercular activity against XDR Mycobacterium tuberculosis X24 assessed as bacterial growth inhibition measured for 9 days; assay type: functional; settings: X24, 216 h, time 9 day
[50] = test system: Staphylococcus aureus; assay: Inhibition of Staphylococcus aureus ATCC 6538 LDH at 7.81 ug/ml relative to control; settings: dose 7.81 µg/ml
[51] = test system: Staphylococcus aureus; assay: Antibacterial activity against Staphylococcus aureus ATCC 25923 assessed as bacterial growth inhibition by CLSI-based broth micro-dilution method; assay type: functional
[52] = test system: Staphylococcus aureus; assay: Antibacterial activity against Staphylococcus aureus ATCC 6538 assessed bacterial growth inhibition incubated for 24 hrs by CLSI-based broth dilution method; assay type: functional
[53] = test system: Mycobacterium tuberculosis; assay: Antitubercular activity against Mycobacterium tuberculosis H37Rv assessed as bacterial growth inhibition measured for 9 days; assay type: functional; settings: 216 h, time 9 day
[54] = test system: Staphylococcus aureus; assay: Antibiofilm activity against Staphylococcus aureus SA1199B at 128 ug/ml incubated for 18 to 24 hrs by broth microdilution method relative to control; assay type: functional; settings: time 18-24 hrs
[55] = test system: Escherichia coli; assay: Antibiofilm activity against Escherichia coli 0157:H7 at 25 ug/ml incubated for 10 hrs by crystal violet staining based assay relative to control; assay type: functional
[56] = test system: Candida albicans; assay: Antibiofilm activity against Candida albicans ATCC SC5314 at 74.55 ug/ml incubated for 24 hr by crystal violet staining based assay relative to control; assay type: functional

Work on `COc1cc(O)ccc1/C=C/C(=O)c1ccc(O)cc1` [ECHINATIN] yielded an inhibition at 6.25 µM [1] of 40%, an inhibition at 200 µM [2] of 71.5% and an IC50 [3] of 21.7 µM.

In the case of `CC(C)=CCc1c(O)ccc(C(=O)/C=C/c2ccc(O)cc2)c1O` [ISOBAVACHALCONE], the MIC [4] is reported as 4 µg/mL (≈ 12.3 µM), the inhibition at 0.78 µg/mL [5] is reported as 80% and the inhibition at 0.78 µg/mL [6] is reported as 75%. The MIC [7] was 4 µg/mL (≈ 12.3 µM), the MBIC [8] was 0.78 µg/mL and the MIC [9] was 0.5 µg/mL (≈ 1.54 µM). It also gave an MBC [10] of 4 µg/mL (≈ 12.3 µM) and an MBIC [11] of 0.78 µg/mL.

Work on `O=C(/C=C/c1ccc(O)cc1)c1ccc(O)cc1O` [ISOLIQUIRITIGENIN] yielded an MIC [12] of 80 µg/mL (≈ 312 µM), an inhibition at 20 µg/mL [13] of 45% and an IC50 [14] of 7 µg/mL (≈ 27.3 µM). It also gave an IC50 [15] of 40 µM, an MIC [16] of 25 µM (≈ 6.41 µg/mL) and an IC50 [17] of 96 µg/mL (≈ 375 µM). The inhibition [18] was 60%, the IC50 [19] was 96 µg/mL (≈ 375 µM) and the IC50 [20] was 17 µg/mL (≈ 66.3 µM). For the same compound, the IC50 [21] was 20 µM.

Work on `O=C(CCc1ccc(O)cc1)c1c(O)cc(O)cc1O` [PHLORETIN] yielded an IC50 [22] of 35.5 µM, an MIC90 [23] of 182 µM (≈ 49.9 µg/mL) and an MIC [24] of 128 µg/mL (≈ 467 µM). The MIC [25] was 16 µM (≈ 4.39 µg/mL), the MBIC50 [26] was 1 µg/mL and the MIC [27] was 74.5 µg/mL (≈ 272 µM). The MIC [28] was 128 µg/mL (≈ 467 µM), the MIC [29] was 46.8 µg/mL (≈ 171 µM) and the inhibition [30] was 30%. It also gave an inhibition (INH) [31] of 46.4%, an MIC [32] of 128 µg/mL (≈ 467 µM) and an MIC [33] of 16 µM (≈ 4.39 µg/mL). It also gave an inhibition at 74.55 µg/mL [34] of 80%, an inhibition at 1 µg/mL [35] of 60% and an MIC [36] of 74.5 µg/mL (≈ 272 µM). The inhibition [37] was 60%, the “inhibition (INH)” value [38] was >70% and the inhibition at 20 µg/mL [39] was 60%. The MIC [40] was 16 µM (≈ 4.39 µg/mL), the MIC [41] was 16 µM (≈ 4.39 µg/mL) and the MIC50 [42] was 410 µM (≈ 112 µg/mL). The MBIC50 [43] was 256 µg/mL, the MIC [44] was 128 µg/mL (≈ 467 µM) and the MIC [45] was 128 µg/mL (≈ 467 µM). For the same compound, the inhibition at 0.4 µg/mL [46] was > 60%, the MIC50 [47] was 230 µM (≈ 63.1 µg/mL) and the inhibition at 50 µg/mL [48] was 93%. The MIC90 [49] was 182 µM (≈ 49.9 µg/mL), the inhibition [50] was 20% and the MIC [51] was 128 µg/mL (≈ 467 µM). The MIC [52] was 7.81 µg/mL (≈ 28.5 µM), the IC50 [3] was 62.5 µM and the MIC90 [53] was 182 µM (≈ 49.9 µg/mL). The inhibition at 128 µg/mL [54] was ≥ 50%, the inhibition at 25 µg/mL [55] was 89% and the inhibition at 74.55 µg/mL [56] was 76%.
